Experimental data published in the NIST ThermoML archive (doi:10.1016/j.fluid.2009.01.011).
± gives the expanded uncertainty stated by the source.

Assay: activity coefficient (dimensionless); of the first substance listed, at infinite dilution; xn = mol fraction of the nth substance listed
Conditions: Liquid, Chromatography, x1 = 0

Structure (SMILES) | activity coefficient (308.15 K) | activity coefficient (318.15 K) | activity coefficient (328.15 K) | activity coefficient (338.15 K) | activity coefficient (348.15 K) | activity coefficient (358.15 K) | activity coefficient (368.15 K) | activity coefficient (298.15 K)
Cc1cccc(C)c1 [1,3-dimethylbenzene] + CCCC[N+]1(C)CCCC1.O=S(=O)([O-])C(F)(F)F | 3.44 ± 0.15 | 3.45 ± 0.15 | 3.47 ± 0.15 | 3.48 ± 0.15 | 3.5 ± 0.15 | 3.51 ± 0.15 | 3.53 ± 0.16 | 
C1CCOC1 [tetrahydrofuran] + CCCC[N+]1(C)CCCC1.O=S(=O)([O-])C(F)(F)F | 1.39 ± 0.06 | 1.41 ± 0.06 | 1.42 ± 0.06 | 1.43 ± 0.06 | 1.44 ± 0.06 | 1.45 ± 0.06 | 1.46 ± 0.06 | 1.38 ± 0.05
Cc1ccccc1 [toluene] + CCCC[N+]1(C)CCCC1.O=S(=O)([O-])C(F)(F)F | 2.19 ± 0.1 | 2.22 ± 0.1 | 2.25 ± 0.1 | 2.27 ± 0.1 | 2.3 ± 0.1 | 2.32 ± 0.1 | 2.35 ± 0.1 | 2.16 ± 0.09
C#CCCC [1-pentyne] + CCCC[N+]1(C)CCCC1.O=S(=O)([O-])C(F)(F)F | 2.66 ± 0.12 | 2.74 ± 0.12 | 2.82 ± 0.12 | 2.88 ± 0.13 | 2.95 ± 0.13 | 3.01 ± 0.13 | 3.08 ± 0.14 | 2.59 ± 0.11
C#CCCCC [1-hexyne] + CCCC[N+]1(C)CCCC1.O=S(=O)([O-])C(F)(F)F | 3.66 ± 0.16 | 3.76 ± 0.17 | 3.85 ± 0.17 | 3.94 ± 0.17 | 4.02 ± 0.18 | 4.09 ± 0.18 | 4.18 ± 0.18 | 3.57 ± 0.16
C1CCCCCCC1 [cyclooctane] + CCCC[N+]1(C)CCCC1.O=S(=O)([O-])C(F)(F)F | 34 ± 1.5 | 31.4 ± 1.4 | 29.1 ± 1.3 | 26.9 ± 1.2 | 25.1 ± 1.1 | 23.5 ± 1 | 22.2 ± 1 | 37.4 ± 1.7
C=CCCC [1-pentene] + CCCC[N+]1(C)CCCC1.O=S(=O)([O-])C(F)(F)F | 16.3 ± 0.7 | 15.3 ± 0.7 | 14.4 ± 0.6 | 13.5 ± 0.6 | 12.8 ± 0.6 | 12.2 ± 0.5 |  | 17.6 ± 0.8
C1CCCC1 [cyclopentane] + CCCC[N+]1(C)CCCC1.O=S(=O)([O-])C(F)(F)F | 17.4 ± 0.8 | 15.9 ± 0.7 | 14.6 ± 0.6 | 13.5 ± 0.6 | 12.6 ± 0.6 | 11.7 ± 0.5 | 11 ± 0.5 | 19.2 ± 0.9
c1ccccc1 [benzene] + CCCC[N+]1(C)CCCC1.O=S(=O)([O-])C(F)(F)F | 1.44 ± 0.06 | 1.46 ± 0.06 | 1.48 ± 0.06 | 1.5 ± 0.06 | 1.53 ± 0.06 | 1.54 ± 0.06 | 1.56 ± 0.06 | 1.41 ± 0.06
C#CCCCCCC [1-octyne] + CCCC[N+]1(C)CCCC1.O=S(=O)([O-])C(F)(F)F | 7.63 ± 0.34 | 7.7 ± 0.34 | 7.76 ± 0.34 | 7.83 ± 0.35 | 7.88 ± 0.35 | 7.94 ± 0.35 | 7.99 ± 0.35 | 7.56 ± 0.33
CCO [ethanol] + CCCC[N+]1(C)CCCC1.O=S(=O)([O-])C(F)(F)F | 1 ± 0.04 | 0.948 ± 0.034 | 0.9 ± 0.033 | 0.862 ± 0.032 | 0.827 ± 0.032 | 0.791 ± 0.031 | 0.763 ± 0.031 | 1.05 ± 0.04
C=CCCCC [hex-1-ene] + CCCC[N+]1(C)CCCC1.O=S(=O)([O-])C(F)(F)F | 20.2 ± 0.9 | 19.2 ± 0.9 | 18.1 ± 0.8 | 17.3 ± 0.8 | 16.4 ± 0.7 | 15.7 ± 0.7 | 15 ± 0.7 | 21.6 ± 1
